Read-outs that look alike come from different tables or passages of the source.
Experiments:
[1] = system: T. brucei TC221 bloodstream forms; experiment: T. brucei growth inhibition assay (resazurin); format: cell-based; details: Trypanosoma brucei, 72 h, 48 h + 24 h with resazurine
Method: (§1) The cell culture conditions and the growth inhibition assay on T. brucei and Balb/3T3 cells were performed as described before. T. brucei TC221 bloodstream forms and mouse embryonic fibroblast Balb/3T3 cells (ATCC no CCL-163) were cultivated in vented plastic flasks at 37 °C with 5% CO2. For T. brucei, the growth medium was HMI-9 [45] supplemented with 10% (v/v) fetal bovine serum (Gibco, Waltham, MA, USA), whereas the Balb/3T3 cells were grown in Dulbecco’s Modified Eagle’s Medium (Sigma-Aldrich) supplemented with 10% (v/v) heat-inactivated fetal bovine serum, glutamine (0.584 g/L), and 10 mL/L 100× penicillin-streptomycin (Gibco). The essential oils or pure compounds identified from these oils were dissolved in dimethyl sulfoxide (DMSO) and serially diluted with growth medium in white 96-well microtiter plates. 20,000 bloodstream forms of T. brucei or Balb/3T3 cells were added to each well in a final volume of 200 μL. In the case of mammalian cells, we also tested 2000 cells/well with similar results. […] Cell viability was verified by a drug-free control for each compound. The plates were incubated for 48 h in the CO2 incubator; then 20 μL of 0.5 mM resazurine (Sigma Aldrich) was added to each well, and the plates were incubated for an additional 24 h before the fluorescence was measured with an Infinite M200 microplate reader (Tecan group, Ltd., Männedorf, Switzerland) equipped with 540 and 590 nm excitation and emission filters. The half maximal inhibitory concentration (IC50) values were calculated on a log inhibitor versus the response curves by non-linear regression using the GraphPad prism 5.04 software (GraphPad Software, Inc., La Jolla, CA, USA).

Balb/3T3 cells = experiment: Mammalian cell growth inhibition assay (resazurin); format: cell-based, mouse; details: for CC50: BALB/3T3, 72 h, mouse embryonic fibroblast cells, 48 h + 24 h with resazurine, read-out: IC50 Balb/3T3; for Selectivity Index (SI): Balb/3T3 versus T. b. brucei TC221
Method: as §1

[2] = read-out: IC50 T. b. brucei (TC221)
[3] = µM value in parentheses, read-out: IC50 T. b. brucei (TC221), value in brackets (converted)

Row | IC50 [1, 2] [µg/mL] | IC50 [1, 3] [µM] | SMILES | CC50 (Balb/3T3 cells) [µg/mL] | Selectivity Index (SI) (Balb/3T3 cells)
1 | > 100 |  | CC1=CCC(O)(C(C)C)CC1 (stereo not shown) [Terpinen-4-ol] |  | 
2 | 11.4 ± 2.6 | 83.7 | C=C1CCC2CC1C2(C)C (stereo not drawn) [β-Pinene] | > 100 | >8.77

More lines, now with the values behind:

Row | SMILES | IC50 [1, 2] [µg/mL] | IC50 [1, 3] [µM] | CC50 (Balb/3T3 cells) [µg/mL] | Selectivity Index (SI) (Balb/3T3 cells)
3 | CC12CCC(CC1)C(C)(C)O2 [1,8-Cineole] | > 100 |  |  | 
4 | C=C1CC/C=C(\C)CC[C@@H]2[C@@H]1CC2(C)C [(E)-Caryophyllene] | 8.25 ± 1.3 | 40.4 | > 100 | >12.1
5 | C=C1CCC2(C(C)C)CC12 (stereo not shown) [Sabinene] | 5.96 ± 1.3 | 43.8 | > 100 | >16.7
6 | Cc1ccc(C(=O)Nc2ccc(S(=O)(=O)O)c3cc(S(=O)(=O)O)cc(S(=O)(=O)O)c23)cc1NC(=O)c1cccc(NC(=O)Nc2cccc(C(=O)Nc3cc(C(=O)Nc4ccc(S(=O)(=O)O)c5cc(S(=O)(=O)O)cc(S(=O)(=O)O)c45)ccc3C)c2)c1 [Suramin, reference compound] | 0.0286 ± 0.0008 | 0.022 |  | 
